Blank lines part the entries; values can stand above or below the compound they belong to.
Tests used:
EpHA2 (kinase domain) = EpHA2 (kinase domain) (Homo sapiens, UniProt P29317); experiment: X-ray crystal structure; type: binding; conditions: co-crystal, 293 K
MST4 = MST4 (Homo sapiens, UniProt Q9P289); experiment: biochemical
EpHA3 = EpHA3 (Homo sapiens, UniProt P29320); experiment: NanoBRET target engagement; type: cell-based
EpHA5 = EpHA5 (Homo sapiens, UniProt P54756); experiment: NanoBRET target engagement; type: cell-based
EpHA5, sequence (P54756 25-1037): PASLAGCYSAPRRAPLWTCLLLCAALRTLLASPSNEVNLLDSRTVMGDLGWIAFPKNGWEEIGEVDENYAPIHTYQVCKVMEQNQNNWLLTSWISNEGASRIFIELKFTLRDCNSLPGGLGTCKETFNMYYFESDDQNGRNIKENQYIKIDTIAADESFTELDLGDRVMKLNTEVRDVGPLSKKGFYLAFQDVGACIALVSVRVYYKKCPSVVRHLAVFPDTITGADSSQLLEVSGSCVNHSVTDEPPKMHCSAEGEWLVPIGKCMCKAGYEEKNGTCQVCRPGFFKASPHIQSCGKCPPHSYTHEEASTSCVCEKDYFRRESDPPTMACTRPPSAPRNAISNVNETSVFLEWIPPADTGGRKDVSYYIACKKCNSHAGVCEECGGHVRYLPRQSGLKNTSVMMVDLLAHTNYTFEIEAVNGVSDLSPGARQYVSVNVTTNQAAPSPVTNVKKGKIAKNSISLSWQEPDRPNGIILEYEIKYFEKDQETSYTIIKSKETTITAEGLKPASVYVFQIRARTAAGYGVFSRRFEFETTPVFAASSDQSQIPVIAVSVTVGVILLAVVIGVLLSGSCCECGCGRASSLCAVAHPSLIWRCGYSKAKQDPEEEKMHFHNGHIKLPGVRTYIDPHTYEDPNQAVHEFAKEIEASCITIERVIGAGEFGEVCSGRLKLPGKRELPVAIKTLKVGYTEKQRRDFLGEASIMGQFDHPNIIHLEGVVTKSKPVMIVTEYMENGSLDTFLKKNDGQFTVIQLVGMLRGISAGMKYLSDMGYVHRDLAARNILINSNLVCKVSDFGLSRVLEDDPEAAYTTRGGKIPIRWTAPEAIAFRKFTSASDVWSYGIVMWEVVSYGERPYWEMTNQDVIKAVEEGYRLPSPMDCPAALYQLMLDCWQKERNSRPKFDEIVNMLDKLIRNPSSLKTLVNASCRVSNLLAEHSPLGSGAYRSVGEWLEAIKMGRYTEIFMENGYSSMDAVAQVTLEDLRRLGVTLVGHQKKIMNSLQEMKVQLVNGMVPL

BMX = biological target: T1, BMX (Homo sapiens, UniProt P51813); experiment: NanoBRET target engagement; type: cell-based
T1 sequence (P51813 1-675): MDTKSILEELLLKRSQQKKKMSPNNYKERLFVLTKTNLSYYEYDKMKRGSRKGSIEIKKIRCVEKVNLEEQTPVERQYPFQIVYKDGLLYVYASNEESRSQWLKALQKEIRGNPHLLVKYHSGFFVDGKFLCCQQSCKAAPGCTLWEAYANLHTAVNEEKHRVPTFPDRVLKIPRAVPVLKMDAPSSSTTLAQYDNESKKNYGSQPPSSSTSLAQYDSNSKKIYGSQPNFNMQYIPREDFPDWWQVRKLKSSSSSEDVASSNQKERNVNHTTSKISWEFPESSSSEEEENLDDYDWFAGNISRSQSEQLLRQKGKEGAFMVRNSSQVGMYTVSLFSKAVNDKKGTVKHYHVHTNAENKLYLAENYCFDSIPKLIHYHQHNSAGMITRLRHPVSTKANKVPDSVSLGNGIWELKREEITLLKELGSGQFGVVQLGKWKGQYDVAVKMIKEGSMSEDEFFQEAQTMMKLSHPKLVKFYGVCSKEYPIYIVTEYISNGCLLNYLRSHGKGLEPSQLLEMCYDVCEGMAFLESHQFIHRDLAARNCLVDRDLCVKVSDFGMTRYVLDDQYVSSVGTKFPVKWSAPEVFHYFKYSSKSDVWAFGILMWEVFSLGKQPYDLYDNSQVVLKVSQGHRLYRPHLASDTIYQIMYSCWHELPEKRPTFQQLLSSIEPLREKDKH

ABL1 = ABL1 (Homo sapiens, UniProt P00519); experiment: NanoBRET target engagement; type: cell-based
ABL1, sequence (P00519 whole entry): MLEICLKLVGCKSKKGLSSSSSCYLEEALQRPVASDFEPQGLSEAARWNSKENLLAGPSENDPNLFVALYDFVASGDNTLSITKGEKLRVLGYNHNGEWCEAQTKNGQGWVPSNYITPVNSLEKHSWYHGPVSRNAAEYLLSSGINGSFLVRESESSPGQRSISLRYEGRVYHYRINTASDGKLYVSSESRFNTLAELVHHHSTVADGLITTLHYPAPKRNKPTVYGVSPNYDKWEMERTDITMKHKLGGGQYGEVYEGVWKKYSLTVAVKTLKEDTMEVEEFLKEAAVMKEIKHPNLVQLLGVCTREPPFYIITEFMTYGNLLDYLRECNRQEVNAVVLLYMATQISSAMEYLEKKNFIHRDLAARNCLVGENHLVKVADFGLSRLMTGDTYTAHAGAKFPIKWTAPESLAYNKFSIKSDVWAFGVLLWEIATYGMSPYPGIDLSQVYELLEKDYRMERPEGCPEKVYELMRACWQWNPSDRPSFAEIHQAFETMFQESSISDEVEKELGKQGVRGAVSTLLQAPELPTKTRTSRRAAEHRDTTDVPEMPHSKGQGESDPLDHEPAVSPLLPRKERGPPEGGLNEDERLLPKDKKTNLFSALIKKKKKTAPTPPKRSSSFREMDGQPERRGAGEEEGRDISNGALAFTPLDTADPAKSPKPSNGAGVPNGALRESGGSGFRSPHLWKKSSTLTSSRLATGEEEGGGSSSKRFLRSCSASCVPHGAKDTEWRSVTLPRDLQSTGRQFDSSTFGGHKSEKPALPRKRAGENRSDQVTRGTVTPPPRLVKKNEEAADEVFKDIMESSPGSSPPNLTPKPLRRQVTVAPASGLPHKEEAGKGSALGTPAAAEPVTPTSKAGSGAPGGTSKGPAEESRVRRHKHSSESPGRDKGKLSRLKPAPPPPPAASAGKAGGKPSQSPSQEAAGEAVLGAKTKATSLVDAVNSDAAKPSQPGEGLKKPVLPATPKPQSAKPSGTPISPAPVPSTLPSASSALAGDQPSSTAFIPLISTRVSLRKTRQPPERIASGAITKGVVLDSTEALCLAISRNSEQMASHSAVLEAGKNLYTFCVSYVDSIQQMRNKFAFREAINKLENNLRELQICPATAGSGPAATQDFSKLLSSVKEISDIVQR

EpHA2 = EpHA2 (Homo sapiens, UniProt P29317); experiment: NanoBRET target engagement; type: cell-based
EpHA2, sequence (P29317 24-976): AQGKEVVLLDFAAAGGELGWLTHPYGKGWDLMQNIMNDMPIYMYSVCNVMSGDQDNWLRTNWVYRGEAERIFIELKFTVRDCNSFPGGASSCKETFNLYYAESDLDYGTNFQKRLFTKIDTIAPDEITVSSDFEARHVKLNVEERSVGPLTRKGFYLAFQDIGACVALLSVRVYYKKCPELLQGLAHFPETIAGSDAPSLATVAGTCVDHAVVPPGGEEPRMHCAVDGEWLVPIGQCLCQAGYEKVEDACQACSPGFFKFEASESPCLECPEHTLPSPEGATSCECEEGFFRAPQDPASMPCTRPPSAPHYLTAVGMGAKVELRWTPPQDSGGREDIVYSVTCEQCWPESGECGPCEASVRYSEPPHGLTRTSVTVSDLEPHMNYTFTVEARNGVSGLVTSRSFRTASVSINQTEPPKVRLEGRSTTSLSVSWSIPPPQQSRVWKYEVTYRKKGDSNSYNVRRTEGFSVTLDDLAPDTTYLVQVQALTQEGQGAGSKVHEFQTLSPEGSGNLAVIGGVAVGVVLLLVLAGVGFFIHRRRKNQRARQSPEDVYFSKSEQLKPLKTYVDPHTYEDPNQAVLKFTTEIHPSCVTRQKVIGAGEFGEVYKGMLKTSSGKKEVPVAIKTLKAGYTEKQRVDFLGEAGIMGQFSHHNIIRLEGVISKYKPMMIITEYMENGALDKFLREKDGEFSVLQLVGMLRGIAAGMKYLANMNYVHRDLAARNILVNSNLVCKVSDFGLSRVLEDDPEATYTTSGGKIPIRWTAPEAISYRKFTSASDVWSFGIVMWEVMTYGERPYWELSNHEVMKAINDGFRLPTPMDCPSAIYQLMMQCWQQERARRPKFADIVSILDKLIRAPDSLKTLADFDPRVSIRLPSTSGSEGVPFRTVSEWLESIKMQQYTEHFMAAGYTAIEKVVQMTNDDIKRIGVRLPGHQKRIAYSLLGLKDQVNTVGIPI

GAK = GAK (Homo sapiens, UniProt O14976); experiment: NanoBRET target engagement; type: cell-based
CK1e = CK1e (Homo sapiens, UniProt P49674); experiment: biochemical; conditions: read-out: dTm 12
CK1e, sequence (P49674 whole entry): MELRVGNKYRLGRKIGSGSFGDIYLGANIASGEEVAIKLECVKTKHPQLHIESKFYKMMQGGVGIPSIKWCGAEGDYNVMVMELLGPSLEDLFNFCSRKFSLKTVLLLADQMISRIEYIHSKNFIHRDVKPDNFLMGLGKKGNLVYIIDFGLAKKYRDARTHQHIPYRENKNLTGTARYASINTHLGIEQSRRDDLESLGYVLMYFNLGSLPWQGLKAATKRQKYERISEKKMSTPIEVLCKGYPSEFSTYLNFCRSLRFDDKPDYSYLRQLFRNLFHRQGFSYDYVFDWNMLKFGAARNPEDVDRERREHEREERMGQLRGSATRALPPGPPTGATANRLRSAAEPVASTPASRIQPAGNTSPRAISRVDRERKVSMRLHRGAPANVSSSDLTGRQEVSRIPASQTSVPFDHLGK

Erk3 = Erk3 (Homo sapiens, UniProt Q16659); experiment: biochemical; conditions: read-out: dTm 12
MSSK1 = MSSK1 (Homo sapiens, UniProt Q9UPE1); experiment: biochemical; conditions: read-out: dTm 12
SLK = SLK (Homo sapiens, UniProt Q9H2G2); experiment: biochemical; conditions: read-out: dTm 12

EpHA3, sequence (P29320 21-983): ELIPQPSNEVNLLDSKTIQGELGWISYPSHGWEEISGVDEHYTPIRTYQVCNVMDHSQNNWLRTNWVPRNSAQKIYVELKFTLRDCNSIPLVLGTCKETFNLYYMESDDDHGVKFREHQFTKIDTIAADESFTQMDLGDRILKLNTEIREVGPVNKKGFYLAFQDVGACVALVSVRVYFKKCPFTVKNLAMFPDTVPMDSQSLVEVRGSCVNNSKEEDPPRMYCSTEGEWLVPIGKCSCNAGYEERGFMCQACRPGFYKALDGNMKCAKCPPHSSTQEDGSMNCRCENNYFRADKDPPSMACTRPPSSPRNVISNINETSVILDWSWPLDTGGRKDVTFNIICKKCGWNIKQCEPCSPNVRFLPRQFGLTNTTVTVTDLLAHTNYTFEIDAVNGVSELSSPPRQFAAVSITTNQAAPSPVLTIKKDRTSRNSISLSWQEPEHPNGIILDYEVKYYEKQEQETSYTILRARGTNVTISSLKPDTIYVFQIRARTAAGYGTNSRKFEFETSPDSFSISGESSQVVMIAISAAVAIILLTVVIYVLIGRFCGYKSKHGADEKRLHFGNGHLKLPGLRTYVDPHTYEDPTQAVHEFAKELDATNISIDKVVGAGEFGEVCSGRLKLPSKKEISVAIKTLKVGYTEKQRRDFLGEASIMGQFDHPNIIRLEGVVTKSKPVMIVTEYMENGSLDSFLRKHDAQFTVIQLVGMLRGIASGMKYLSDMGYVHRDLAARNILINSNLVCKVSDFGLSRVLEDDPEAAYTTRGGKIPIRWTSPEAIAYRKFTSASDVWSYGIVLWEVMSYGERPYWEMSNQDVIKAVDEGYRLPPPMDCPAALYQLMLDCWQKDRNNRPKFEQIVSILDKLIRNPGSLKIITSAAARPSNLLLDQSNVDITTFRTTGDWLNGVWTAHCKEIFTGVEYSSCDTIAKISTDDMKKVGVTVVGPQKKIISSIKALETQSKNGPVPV
MST4, sequence (Q9P289 whole entry): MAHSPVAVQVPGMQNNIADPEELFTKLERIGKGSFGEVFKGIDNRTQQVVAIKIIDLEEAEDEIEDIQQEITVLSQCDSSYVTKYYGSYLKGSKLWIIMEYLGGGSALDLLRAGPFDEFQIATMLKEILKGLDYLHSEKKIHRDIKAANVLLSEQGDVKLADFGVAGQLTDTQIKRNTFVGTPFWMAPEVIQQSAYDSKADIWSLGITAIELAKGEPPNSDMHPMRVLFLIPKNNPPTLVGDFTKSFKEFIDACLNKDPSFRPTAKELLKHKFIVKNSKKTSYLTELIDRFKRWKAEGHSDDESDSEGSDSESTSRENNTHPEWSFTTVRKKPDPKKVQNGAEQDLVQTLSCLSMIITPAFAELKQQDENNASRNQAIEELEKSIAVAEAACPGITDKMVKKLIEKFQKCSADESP

SMILES: CNc1ncc2cc(-c3cc(C(F)(F)F)ccc3Cl)c(=O)n(CCCCN)c2n1 [compound 9, 8-(4-Aminobutyl)-6-(2-chloro-5-(trifluoromethyl)phenyl)-2-(methylamino)pyrido[2,3-d]pyrimidin-7(8H)-one]
X-ray crystal structure (EpHA2 (kinase domain)): 8BIO (EpHA2-9 complex)

SMILES: CNc1ncc2cc(-c3cc(Cl)ccc3Cl)c(=O)n(CCCCN)c2n1 [compound 8, 8-(4-Aminobutyl)-6-(2,5-dichlorophenyl)-2-(methylamino)pyrido[2,3-d]pyrimidin-7(8H)-one]
IC50 (EpHA3): > 1 µM
IC50 (EpHA5): > 1 µM
IC50 (BMX): > 1 µM
IC50 (ABL1): > 1 µM
IC50 (EpHA2): > 1 µM

SMILES: CNc1ncc2cc(-c3cc(F)c(-c4cccc(C)n4)cc3F)c(=O)n(CCCCN)c2n1 [compound 12, 8-(4-Aminobutyl)-6-(2,5-difluoro-4-(6-methylpyridin-2-yl)phenyl)-2-(methylamino)pyrido[2,3-d]pyrimidin-7(8H)-one]
ΔTm at 10 µM (CK1e): 3.1 °C
ΔTm at 10 µM (Erk3): 0.7 °C
ΔTm at 10 µM (MSSK1): -0.2 °C
ΔTm at 10 µM (SLK): 2.9 °C

Second part, the compound after the results:

ΔTm at 10 µM (MST4; read-out: ∆Tm MR22 (5)): 1.4 °C
SMILES: CNc1ncc2cc(-c3cc(F)ccc3F)c(=O)n(CCCCN)c2n1 [compound 5, 8-(4-Aminobutyl)-6-(2,5-difluorophenyl)-2-(methylamino)pyrido[2,3-d]pyrimidin-7(8H)-one]

IC50 (EpHA3): 0.313 ± 0.121 µM
IC50 (GAK): > 1 µM
IC50 (EpHA5): 0.928 ± 0.006 µM
IC50 (ABL1): > 1 µM
IC50 (EpHA2): 0.21 ± 0.036 µM
SMILES: CNc1ncc2cc(-c3ccccc3Cl)c(=O)n(CCCCN)c2n1 [compound 4, 8-(4-Aminobutyl)-6-(2-chlorophenyl)-2-(methylamino)pyrido[2,3-d]pyrimidin-7(8H)-one]

∆Tm G-5555 (2) (MST4; 10 µM, binder): 6.1 degC
SMILES: CNc1ncc2cc(-c3ccc(-c4cccc(C)n4)cc3Cl)c(=O)n(CC3OCC(N)CO3)c2n1 (centres unmarked) [compound 2, G-5555]

From paper doi:10.1101/2023.03.24.534094v2 (biorxiv, 2023)
